# Species on record: Rattus norvegicus
# Experiment: DrugMatrix - Regimen: Daily Repeat
# Format: toxicity, organism-based, Sprague-Dawley
# Set-up: regimen Daily Repeat, gender Male, age 6-8 weeks
# Conditions: in vivo, po, route oral GAVAGE, […]; for ABSOLUTE BASOPHIL / ABSOLUTE EOSINOPHIL / ABSOLUTE LYMPHOCYTE / ABSOLUTE MONOCYTE / ABSOLUTE SEGMENTED NEUTROPHIL / BASOPHIL / EOSINOPHIL / ERYTHROCYTE COUNT / HEMATOCRIT / HEMOGLOBIN / LEUKOCYTE COUNT / LYMPHOCYTE / MEAN CORPUSCULAR HEMOGLOBIN / MEAN CORPUSCULAR HEMOGLOBIN CONCENTRATION / MEAN CORPUSCULAR VOLUME / MONOCYTE / NEUTROPHIL / NUCLEATED RED BLOOD CELLS / PLATELET COUNT: tissue Blood; for ALANINE AMINOTRANSFERASE / ALBUMIN / ALKALINE PHOSPHATASE / ASPARTATE AMINOTRANSFERASE / BLOOD UREA NITROGEN / CARBON DIOXIDE / CHLORIDE / CHOLESTEROL / CREATINE PHOSPHOKINASE / CREATININE / GLUCOSE / LACTATE DEHYDROGENASE / LIPASE / PHOSPHORUS / POTASSIUM / SODIUM / TOTAL BILIRUBIN / TOTAL PROTEIN / URIC ACID: tissue Plasma
# [1] = 0 mg/kg, 72 h, dose level Control, time 3 day
# [2] = 0 mg/kg, 120 h, dose level Control, time 5 day
# [3] = 50 mg/kg, 72 h, dose level Low, time 3 day
compound,measurement,setting,value
COC(=O)Nc1nc2ccc(C(=O)c3ccccc3)cc2[nH]1 [MEBENDAZOLE],ABSOLUTE BASOPHIL,[1],0 CELLS/uL
same,ABSOLUTE EOSINOPHIL,[1],0 CELLS/uL
same,ABSOLUTE LYMPHOCYTE,[1],9244.83 CELLS/uL
same,ABSOLUTE MONOCYTE,[1],102 CELLS/uL
same,ABSOLUTE SEGMENTED NEUTROPHIL,[1],869.83 CELLS/uL
same,BASOPHIL,[1],0%
same,EOSINOPHIL,[1],0%
same,ERYTHROCYTE COUNT,[1],5.43 x10E6/uL
same,HEMATOCRIT,[1],34.03%
same,HEMOGLOBIN,[1],13.27 G/DL
same,LEUKOCYTE COUNT,[1],10.22 x10E3/uL
same,LYMPHOCYTE,[1],90.33%
same,MEAN CORPUSCULAR HEMOGLOBIN,[1],24.48 pg
same,MEAN CORPUSCULAR HEMOGLOBIN CONCENTRATION,[1],39.03 G/DL
same,MEAN CORPUSCULAR VOLUME,[1],62.75 fL
same,MONOCYTE,[1],1%
same,NEUTROPHIL,[1],8.67%
same,NUCLEATED RED BLOOD CELLS,[1],0.17 /100WBC
same,PLATELET COUNT,[1],989 x10E3/uL
same,ALANINE AMINOTRANSFERASE,[1],77 u/L
same,ALBUMIN,[1],3.97 G/DL
same,ALKALINE PHOSPHATASE,[1],464.83 u/L
same,ASPARTATE AMINOTRANSFERASE,[1],89.83 u/L
same,BLOOD UREA NITROGEN,[1],12.17 mg/dL
same,CARBON DIOXIDE,[1],34.17 mmol/L
same,CHLORIDE,[1],98.33 MEQ/L
same,CHOLESTEROL,[1],75.17 mg/dL
same,CREATINE PHOSPHOKINASE,[1],367.67 u/L
same,CREATININE,[1],0.16 mg/dL
same,GLUCOSE,[1],142.67 mg/dL
same,LACTATE DEHYDROGENASE,[1],139.33 u/L
same,LIPASE,[1],9.5 u/L
same,PHOSPHORUS,[1],10.85 mg/dL
same,POTASSIUM,[1],6.38 MEQ/L
same,SODIUM,[1],143.2 MEQ/L
same,TOTAL BILIRUBIN,[1],0.2 mg/dL
same,TOTAL PROTEIN,[1],5.77 G/DL
same,URIC ACID,[1],0.7 mg/dL
same,ABSOLUTE BASOPHIL,[2],0 CELLS/uL
same,ABSOLUTE EOSINOPHIL,[2],0 CELLS/uL
same,ABSOLUTE LYMPHOCYTE,[2],8295.33 CELLS/uL
same,ABSOLUTE MONOCYTE,[2],84.67 CELLS/uL
same,ABSOLUTE SEGMENTED NEUTROPHIL,[2],970 CELLS/uL
same,BASOPHIL,[2],0%
same,EOSINOPHIL,[2],0%
same,ERYTHROCYTE COUNT,[2],5.74 x10E6/uL
same,HEMATOCRIT,[2],36.22%
same,HEMOGLOBIN,[2],13.85 G/DL
same,LEUKOCYTE COUNT,[2],9.35 x10E3/uL
same,LYMPHOCYTE,[2],88.67%
same,MEAN CORPUSCULAR HEMOGLOBIN,[2],24.13 pg
same,MEAN CORPUSCULAR HEMOGLOBIN CONCENTRATION,[2],38.25 G/DL
same,MEAN CORPUSCULAR VOLUME,[2],63.08 fL
same,MONOCYTE,[2],1%
same,NEUTROPHIL,[2],10.33%
same,NUCLEATED RED BLOOD CELLS,[2],0.17 /100WBC
same,PLATELET COUNT,[2],883.83 x10E3/uL
same,ALANINE AMINOTRANSFERASE,[2],64.5 u/L
same,ALBUMIN,[2],4.12 G/DL
same,ALKALINE PHOSPHATASE,[2],425.67 u/L
same,ASPARTATE AMINOTRANSFERASE,[2],88.5 u/L
same,BLOOD UREA NITROGEN,[2],14.17 mg/dL
same,CARBON DIOXIDE,[2],30.5 mmol/L
same,CHLORIDE,[2],100.33 MEQ/L
same,CHOLESTEROL,[2],55.33 mg/dL
same,CREATINE PHOSPHOKINASE,[2],287.17 u/L
same,CREATININE,[2],0.2 mg/dL
same,GLUCOSE,[2],162.83 mg/dL
same,LACTATE DEHYDROGENASE,[2],111.33 u/L
same,LIPASE,[2],10.5 u/L
same,PHOSPHORUS,[2],10.32 mg/dL
same,POTASSIUM,[2],5.13 MEQ/L
same,SODIUM,[2],143.93 MEQ/L
same,TOTAL BILIRUBIN,[2],0.17 mg/dL
same,TOTAL PROTEIN,[2],5.9 G/DL
same,URIC ACID,[2],0.77 mg/dL
same,ABSOLUTE BASOPHIL,[3],0 CELLS/uL
same,ABSOLUTE EOSINOPHIL,[3],0 CELLS/uL
same,ABSOLUTE LYMPHOCYTE,[3],11176.67 CELLS/uL
same,ABSOLUTE MONOCYTE,[3],118.33 CELLS/uL
same,ABSOLUTE SEGMENTED NEUTROPHIL,[3],1305 CELLS/uL
same,BASOPHIL,[3],0%
same,EOSINOPHIL,[3],0%
same,ERYTHROCYTE COUNT,[3],5.06 x10E6/uL
same,HEMATOCRIT,[3],32%
same,HEMOGLOBIN,[3],12.6 G/DL
same,LEUKOCYTE COUNT,[3],12.6 x10E3/uL
same,LYMPHOCYTE,[3],89.33%
same,MEAN CORPUSCULAR HEMOGLOBIN,[3],24.93 pg
same,MEAN CORPUSCULAR HEMOGLOBIN CONCENTRATION,[3],39.43 G/DL
same,MEAN CORPUSCULAR VOLUME,[3],63.27 fL
same,MONOCYTE,[3],1%
same,NEUTROPHIL,[3],9.67%
same,NUCLEATED RED BLOOD CELLS,[3],0 /100WBC
same,PLATELET COUNT,[3],983 x10E3/uL
same,ALANINE AMINOTRANSFERASE,[3],78 u/L
same,ALBUMIN,[3],3.87 G/DL
same,ALKALINE PHOSPHATASE,[3],423.67 u/L
same,ASPARTATE AMINOTRANSFERASE,[3],86.33 u/L
same,BLOOD UREA NITROGEN,[3],12.33 mg/dL
same,CARBON DIOXIDE,[3],32 mmol/L
same,CHLORIDE,[3],100 MEQ/L
same,CHOLESTEROL,[3],74.67 mg/dL
same,CREATINE PHOSPHOKINASE,[3],274.33 u/L
same,CREATININE,[3],0.25 mg/dL
same,GLUCOSE,[3],142.67 mg/dL
same,LACTATE DEHYDROGENASE,[3],145 u/L
same,LIPASE,[3],11 u/L
same,PHOSPHORUS,[3],11.2 mg/dL
same,POTASSIUM,[3],5.98 MEQ/L
same,SODIUM,[3],144.33 MEQ/L
same,TOTAL BILIRUBIN,[3],0.17 mg/dL
same,TOTAL PROTEIN,[3],5.53 G/DL
same,URIC ACID,[3],0.77 mg/dL

# — ChEMBL document CHEMBL3885881, “DrugMatrix”
